According to US20180036259A1, “NO DONORS FOR THE TREATMENT OF IMPAIRED TISSUE PERFUSION” (MIRANDAPHARMACEUTICALS AG, priority 2015, published 2018):
“Also recorded” adds a separate entry of the source.

Experiments:
[1] = in humans; cited from earlier work
[2] = in vivo; cited from earlier work
adductor muscles = test: Immunohistochemical analysis of adductor muscles (capillary density), diabetic mice; format: in vivo, diabetic mouse (Bks.Cg+Lepr<db>/+Lepr<db>/OlaHsd); details: normalized by number of myocytes (FIG. 11a, 11b)
[3] = system: endothelial progenitor cells; test: Mobilization of putative stem cells into peripheral blood by flow cytometry, diabetic mice; format: in vivo, diabetic mouse (Bks.Cg+Lepr<db>/+Lepr<db>/OlaHsd)
Description: Mobilization of putative stern cells from bone marrow into the peripheral blood in the placebo and treated groups mice 7 days after surgery was assessed by flow cytometry in whole blood. The cells were identified using a combination of antibodies that binds to the specific cell surface markers typical for potential angiogenic stem cells.

platelets = test: Platelet activation by mean fluorescence intensity in platelets isolated from treatment groups; format: in vivo; details: platelets from treated rats; resting state (FIG. 8)
Description: Platelet activation was determined using mean fluorescence measurements.

[4] = system: adductor muscle of hypoxic limb; test: Histological analysis of muscles (new vessels, capillary and arteriole density), rat hind limb ischemia; format: in vivo, Sprague-Dawley (SD) rats; details: SD rats; for number of arterioles in isolated muscles (arterioles density/mm^2): at 4 weeks, compared to Cilostazol- and placebo-treated animals (FIG. 5)
Description: (§1) The animals were held in the Open Animal Facility at the Department of Physiology, University of Zurich and used after a suitable period allowing the animals to adapt to the new environment. A unilateral hind limb ischemia was created in the SD rats by surgical intervention, whereby the right hind limb was ligated and the vessels excised as described in Vasc. Pharmacol., 2009, 51(4):268-74. The animals were then randomly assigned to receive either Cilostazol alone (100 mg/kg/bi-daily orally by gavage), CLC-1011 (3.6 mg/day by mini-osmotic pump, e.g. Model #2004, Alzet Inc.) alone, a combination of Cilostazol (100 mg/kg/bi-daily) and CLC-1011 (3.6 mg/day by mini-osmotic pump), or placebo for a total duration of 2 or 4 weeks.
(§2) During the treatment intervals, animals were scanned using laser Doppler imaging every third day post-operation to estimate the blood perfusion in ligated limbs. Blood flow was measured using a laser Doppler imager (Moor, Axminster, UK) and analyzed with the MoorLDI™ Image Review V51 software. The animals were placed on a heating pad in order to maintain constant body temperature during the entire procedure. At the end of the 2 and 4 weeks interval, animals were sacrificed and muscles were isolated and prepared for histological analysis.

[5] = system: arterioles of adductor muscle; test: Vascular remodelling, histopathological analysis of isolated adductor muscle; format: in vivo; details: SD rats, compared to Cilostazol and placebo (FIG. 7)
Description: In order to assess possible effects the different treatments have on vascular remodelling, histopathological analysis of isolated adductor muscle was performed and the vascular luminal- and vascular wall-properties were addressed. […] See FIG. 7 showing in the left panel the arteriolar wall area/luminar ratio in the four treatment arms.

arterioles = test: Arteriolar remodeling response to ischemia (wall and luminal area), diabetic mice; format: in vivo, diabetic mouse (Bks.Cg+Lepr<db>/+Lepr<db>/OlaHsd); details: arterioles (FIG. 13)
Description: These findings corroborate with the remodeling effect of CLC-1011 seen at the vascular wall. To check the arteriolar remodeling response to the ischemia, immunohistochemistry was performed as described above. The remodeling consists in the wall area per luminal area ratio. The measurement of wall and luminal areas and diameter calculation of arterioles was performed in an equal random area for each histological sample. The results shown in FIG. 13a; FIG. 13b and FIG. 13c indicate that the luminal area of the vessels increased in the CLC-1011-treated animals, but not in the Cilostazol- or the placebo-treated animals. Of note, the results indicated no change in the wall area size in either of the groups.

[6] = system: arterioles of adductor muscle; test: Arterioles density by alpha-SMA immunohistology, diabetic mice; format: in vivo, diabetic mouse (Bks.Cg+Lepr<db>/+Lepr<db>/OlaHsd); details: alpha-SMA immunohistology (FIG. 12)
Description: Immunohistology for the alpha-smooth muscle (α-SMA) antigen was employed to highlight the vascular structures within the muscles and allow accurate counting of arterioles. Briefly, sections were deparaffinised in xylene (2×5 min) and rehydrated in decreasing concentrations of ethanol (2×3 min washes in 100% ethanol, followed by 1×3 min wash in 96% ethanol). Sections were washed twice with Tris-buffered saline (TBS, 0.1 M Tris- HCl with 0.9% NaCl, pH 7.4) and incubated for 1 h at room temperature (RT) with the primary antisera (M0851, Dako, Baar, Switzerland), without pretreatment. A detection kit containing the secondary antibody and diaminobenzidine tetrahydrochloride (DAB) as chromogen was subsequently applied according to the manufacturer's protocols
(Peroxidase/DAB plus Mouse Kit; DAKO). Sections were then washed 3 times in TBS and once in distilled water and counterstained for 1 min with haematoxylin, followed by rinsing for 5 min in tap water and dehydration in ascending alcohols, clearing in xylene, coverslipping and mounting. Arterioles density was quantified in histological sections of the adductor muscle. Results were expressed as number of arterioles/mm^2 of tissue.

[7] = system: ligated hind limb (unilateral hind limb ischemia); test: Blood perfusion by laser Doppler imaging in rat unilateral hind limb ischemia model of PAD; format: in vivo, Sprague-Dawley (SD) rats; details: SD rats; for blood perfusion in ligated limbs (laser Doppler imaging): hind limb ischemia, CLC-1011 3.6 mg/day by osmotic pump, Cilostazol 100 mg/kg bi-daily orally, over 21 days (FIG. 1)
Description: as §1, §2

[8] = system: stromal cell-derived factor 1 (SDF-1); test: Circulating SDF-1 levels in serum by ELISA; format: in vivo; details: rats; serum at day 6 post-ischemia; ELISA (FIG. 9)
Description: The stromal cell-derived factor 1 (SDF-1) is a circulating proangiogenic cytokine, which plays an important role in angiogenesis. Serum of rats from 4 treatment arms was collected at day 6 post-ischemia. SDF-1 levels were determined by ELISA using methods known in the art.

ischemic hind limb = test: Blood flow by laser Doppler imaging in diabetic mice with hind limb ischemia; format: in vivo, diabetic mouse (Bks.Cg+Lepr<db>/+Lepr<db>/OlaHsd); details: for blood perfusion (laser Doppler imaging): diabetic mice with hind limb ischemia (FIG. 10a)
Description: Blood flow was measured by laser Doppler imaging in diabetic mice with hind limb ischemic after treatment with CLC-1011 alone or in a combination with Cilostazol.

[9] = whole blood flow cytometry, 7 days after surgery (FIG. 14)

SMILES	nitrate tolerance [1]	half-live [2]	capillary density in adductor muscles (adductor muscles)	recruitment of the endothelial progenitor cells ([3]; peripheral blood 7 days after surgery)	number of potential endothelial progenitor cells positive for VEGFR2 [3, 9]	number of potential endothelial progenitor cells positive for stem cell antigen 1 (Sca-1) [3, 9]	platelet activation (mean fluorescence intensity) (platelets)	angiogenesis / capillary density in the adductor muscle ([4]; after 2 and 4 weeks of treatment, 28 days after surgery (FIG. 4))	number of arterioles in isolated muscles (arterioles density/mm^2) [4]	number of arterioles in isolated muscles (arterioles density/mm^2) ([4]; listed as CL-1011)	formation of new blood vessels in hypoxic limb tissue ([4]; tissue sections (FIG. 3))	luminal area of the vessels [5]	luminal area of the vessels (arterioles)	arterioles density in the hind limb [6]	blood perfusion in ligated limbs (laser Doppler imaging) [7]	time up to which the increase in blood perfusion can be detected ([7]; ligated hind limb normalized to contralateral limb (FIG. 6))	circulating SDF-1 levels in serum [8]	blood perfusion (laser Doppler imaging) (ischemic hind limb)	area under the curve of blood flow (ischemic hind limb; diabetic mice with hind limb ischemia (FIG. 10b))
NCCO[N+](=O)[O-] [AEN, 2-aminoethyl nitrate]	does not provoke nitrate tolerance	approx. 2 hours																	
NCCO[N+](=O)[O-] [CLC-1011, 2-aminoethyl nitrate]			increase of the capillary density	enhances the recruitment of the endothelial progenitor cells	increase in the number of potential endothelial progenitor cells	increase in the number of potential endothelial progenitor cells	significantly prevents activation of platelets in resting state	significant arteriogenic effects; also recorded: angiogenesis has been stimulated	significant arteriogenic effects	significantly contributes to an increase of the number of arterioles	clear increase in the formation of new blood vessels	significantly increases luminal area	increased	increase of the arterioles	increase in blood perfusion	up to 3 weeks	induced the release of the circulating SDF-1	increase in the blood perfusion; also recorded: increased blood perfusion	increase of the area under the curve
O=C1CCc2cc(OCCCCc3nnnn3C3CCCCC3)ccc2N1 [Cilostazol, reference compound]							no effect in prevention of platelet activation and aggregation					such effect is absent	not	no change	no effect in blood flow			remains unchanged	
